# Experiments:
# [1] = test system: human retinal endothelial cells (HRECs); test: Intracellular ROS levels in endothelial cells under HGM conditions; assay type: cell-based; conditions: 30 mM glucose 3 days then 5.5 mM 3 days; 1 nM K9-C-peptide or K8 polypeptide, 0.5 µM Trolox, 50 µM cystamine, 1 nM human C-peptide; CellROX green and H2DCFDA, n = 4
# Description: (§1) HRECs were purchased from the Applied Cell Biology Research Institute (Cell Systems, Kirkland, WA) and grown on 2% gelatin-coated plates in M199 medium supplemented with 20% FBS, 3 ng/mL basic fibroblast growth factor, 100 U/mL penicillin, and […] streptomycin in a humidified 5% CO2 incubator. Cells were authenticated by short tandem repeat profiling, and subconfluent cells after 7–9 passages were used in experiments. For the experiments, endothelial cells were incubated for 12 h in a low-serum medium supplemented with 2% fetal bovine serum, 0.1 ng/mL basic fibroblast growth factor, and antibiotics. The cells were then treated with 5.5 mM D-glucose for 6 days (normal glucose), 30 mM glucose for 6 days (high glucose), or 30 mM glucose for 3 days followed by 5.5 mM glucose for 3 days (HGM).
# Intracellular ROS levels were measured in HRECs using CellROX™ green reagent and 2′,7′-dichlorodihydrofluorescein diacetate (Thermo Fisher Scientific, Waltham, MA, USA) as previously described. Labeled cells on coverslips were mounted in a perfusion chamber and analyzed by confocal microscopy (K1-Fluo). ROS levels were determined at the single-cell level for 30 randomly selected cells in three microscopic fields per experiment (n = 4).
# TGase = test: In situ TGase activity in endothelial cells under HGM conditions; assay type: cell-based; conditions: 30 mM glucose 3 days then 5.5 mM 3 days, 1 nM K9-C-peptide or K8 polypeptide, 0.5 µM Trolox, 50 µM cystamine, 1 nM human C-peptide, confocal, n = 4
# Description: as §1
# In situ TGase transamidating activity was measured by confocal microscopic assay as previously described. Briefly, HRECs were treated with 1 mmol/L 5-(biotinamido)pentylamine for 1 h and fixed with 3.7% formaldehyde for 30 min. The cells were then permeabilized with 0.2% Triton X-100 in PBS for 30 min and stained with FITC-conjugated streptavidin (1:200; MilliporeSigma, Burlington, MA, USA) for 1 h. The fluorescence intensities of single stained cells were determined by confocal microscopy (K1-Fluo) for 30 randomly selected cells in three microscopic fields per experiment (n = 4).
# [2] = cited from earlier work
# Description: However, C-peptide is limited in clinical applications by its short circulating half-life (approximately 30 min) and costly chemical synthesis. Recently, we prepared K9-C-peptide, a recombinant human C-peptide conjugated to ELP, to facilitate long-term systemic delivery of C-peptide. ELPs, derived from human elasti ...
# [3] = test system: type 1 and type 2 diabetic mice; conditions: cited from earlier work
# Excerpt: The coincidence of diabetic complications, including DR, DPN, and DKD, has been reported in a number of clinical studies. Among the potential microvascular complications of diabetes, the coincidence of DR and DKD was reported to be high in epidemiological studies of both type 1 and type 2 diabetes. Co-occurrence of microvascular complications has also been observed in diabetic animal models including diabetic mice and rats. Moreover, increased mortality was reported in patients with both DR and systemic vascular diseases, including DKD [[ ...
# [4] = Human insulin level in mouse serum (ELISA); assay type: in vivo; conditions: HGM mice, insulin by osmotic pump 58.4 pmol/min/kg for 4 weeks, alone or with K8 polypeptide or K9-C-peptide, 10 weeks after streptozotocin, mean ± SD, n = 6
# Description: (§2) One day after implantation of the osmotic pumps, human C-peptide was systemically supplemented by subcutaneous implantation of K9-C-peptide depots as previously described. […] The K9-C-peptide and K8 polypeptide were prepared by inverse transition cycling as previously described. Four weeks after the subcutaneous injections, sera and retinal, lung, and kidney tissues were obtained from the mice and analyzed. All animal experiments conformed to the Guide for the Care and Use of Laboratory Animals (National Institutes of Health; Bethesda, MD, USA) and were approved by the Institutional Animal Care and Use Ethics Committee of Kangwon National University (KW-201204–3).
# [5] = test system: insulin-supplemented diabetic (HGM) mice; test: Body weight, blood glucose, water and food consumption of HGM mice; assay type: in vivo, mouse; conditions: 4 weeks of treatment, insulin vs diabetic, K9-C-peptide/K8 on top of insulin, n = 6
# Description: Six-week-old male C57BL/6 mice were obtained from DBL (EumSeong, Korea). […] Soo-Yul Kim (National Cancer Center, Goyang, Republic of Korea). Mice were maintained under pathogen-free conditions in a temperature-controlled room with a 12-h light/dark cycle. Diabetic mice were generated by single daily intraperitoneal injections of streptozotocin (50 mg/kg body weight; MilliporeSigma, Burlington, MA, USA) freshly prepared in 100 mM citrate buffer (pH 4.5) for 5 consecutive days, as previously described. The control group mice were injected with an equal volume of the citrate buffer. Mice with fasting blood glucose concentrations ≥ 19 mmol/L, polyuria, and glucosuria were considered diabetic. Mouse blood glucose levels and body weights were monitored weekly. […] One day after implantation of the osmotic pumps, human C-peptide was systemically supplemented by subcutaneous implantation of K9-C-peptide depots as previously described. […] The K9-C-peptide and K8 polypeptide were prepared by inverse transition cycling as previously described. Four weeks after the subcutaneous injections, sera and retinal, lung, and kidney tissues were obtained from the mice and analyzed. All animal experiments conformed to the Guide for the Care and Use of Laboratory Animals (National Institutes of Health; Bethesda, MD, USA) and were approved by the Institutional Animal Care and Use Ethics Committee of Kangwon National University (KW-201204–3).
# [6] = Human C-peptide level in mouse serum (ELISA); assay type: in vivo; conditions: HGM mice (STZ diabetic, insulin by osmotic pump 4 weeks), 4 weeks after s.c. K9-C-peptide 100 mg/kg or K8 polypeptide 83 mg/kg, injected twice, mean ± SD, n = 6
# Description: as §2
molecule,measurement,setting,value
Cc1c(C)c2c(c(C)c1O)CCC(C)(C(=O)O)O2 (stereo not drawn) [Trolox],HGM-induced persistent ROS generation in HRECs,[1],inhibited
same,HGM-induced persistent TGase activation in HRECs,TGase,inhibited
NCCSSCCN [cystamine],HGM-induced persistent ROS generation in HRECs,[1],inhibited
same,HGM-induced persistent TGase activation in HRECs,TGase,inhibited
CC(C)C[C@H](NC(=O)[C@H](C)NC(=O)[C@H](CC(C)C)NC(=O)[C@@H]1CCCN1C(=O)[C@H](CCC(N)=O)NC(=O)[C@H](CC(C)C)NC(=O)[C@H](CO)NC(=O)CNC(=O)[C@H](C)NC(=O)CNC(=O)[C@@H]1CCCN1C(=O)CNC(=O)CNC(=O)CNC(=O)[C@H](CC(C)C)NC(=O)[C@H](CCC(=O)O)NC(=O)[C@@H](NC(=O)[C@H](CCC(N)=O)NC(=O)CNC(=O)[C@@H](NC(=O)[C@H](CCC(N)=O)NC(=O)[C@H](CC(C)C)NC(=O)[C@H](CC(=O)O)NC(=O)[C@H](CCC(=O)O)NC(=O)[C@H](C)NC(=O)[C@@H](N)CCC(=O)O)C(C)C)C(C)C)C(=O)N[C@@H](CCC(=O)O)C(=O)NCC(=O)N[C@@H](CO)C(=O)N[C@@H](CC(C)C)C(=O)N[C@@H](CCC(N)=O)C(=O)O [human C-peptide],Circulating half-life,[2],approximately 30 min
CN(C)c1ccc(O)c2c1C[C@H]1C[C@H]3[C@H](N(C)C)C(O)=C(C(N)=O)C(=O)[C@@]3(O)C(O)=C1C2=O [minocycline],Effect on DR and DKD,"[3]; DR in type 1 and DKD in type 2 diabetic mice, respectively",partially ameliorated
same,Effect on DPN,[3]; type 1 and type 2 diabetic mice (either animal model),failed to improve
insulin: human recombinant insulin delivered by subcutaneous osmotic pump (HGM group),Serum human insulin,[4],in the physiological range
same,Effect on blood glucose level (hyperglycemia),[5],normalized
same,Effect on body weight,[5],normalized
same,Effect on water and food consumption,[5],normalized
same,Serum C-peptide,[6],not detectable
